Experimental findings from ChEMBL document CHEMBL1201862, “PubChem BioAssay data set” (2004) are described below.

Test [1] is described as follows: HPDE-C7 pancreatic duct cell viability loss – fluorescence, HTS (AID 430). The class given is functional, cell-based. Particulars: Homo sapiens.
Test [2] is described as follows: viability loss of HPDE-C7K cells – cell-based, fluorescence, HTS, primary screen (AID 431). The class given is functional. The following applies: Homo sapiens.
A short description of test [3]: Luminescence Cell-Based Dose Response HTS to Identify Activators of Luciferase Translation or Activity in H4 […] Cells. [Related pubchem assays: 1829 (Project Summary), 1814 (Primary HTS)]. Type of test: functional.
For test [4], the target named is Peroxisome proliferator-activated receptor gamma/Nuclear receptor coactivator 1 (Homo sapiens, UniProt P37231). The class given is functional.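 Further: agonist potency as compounds enhance coactivator SRC-1 recruitment to PPARgamma.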
In test [5] the target is Peroxisome proliferator-activated receptor gamma/Nuclear receptor coactivator 2 (Homo sapiens, UniProt P37231). The class given is functional.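 Further: agonist potency for raising coactivator recruitment to the receptor.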
Test [6] has as its target Peroxisome proliferator-activated receptor gamma/Nuclear receptor coactivator 3 (Homo sapiens, UniProt P37231). The class given is functional.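 Further: agonist potency for raising coactivator recruitment to the receptor.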
A short description of test [7]: viability of uninfected HEp-2 cells – cell-based, HTS, cytotoxicity control for RSV inhibitor project, dose response (AID 2410). Particulars: human respiratory syncytial virus. The class given is functional.
Test [8] has as its target T1, Replicative DNA helicase DnaB (Mycobacterium tuberculosis, UniProt P9WMR3).
T1 sequence (P9WMR3 whole entry): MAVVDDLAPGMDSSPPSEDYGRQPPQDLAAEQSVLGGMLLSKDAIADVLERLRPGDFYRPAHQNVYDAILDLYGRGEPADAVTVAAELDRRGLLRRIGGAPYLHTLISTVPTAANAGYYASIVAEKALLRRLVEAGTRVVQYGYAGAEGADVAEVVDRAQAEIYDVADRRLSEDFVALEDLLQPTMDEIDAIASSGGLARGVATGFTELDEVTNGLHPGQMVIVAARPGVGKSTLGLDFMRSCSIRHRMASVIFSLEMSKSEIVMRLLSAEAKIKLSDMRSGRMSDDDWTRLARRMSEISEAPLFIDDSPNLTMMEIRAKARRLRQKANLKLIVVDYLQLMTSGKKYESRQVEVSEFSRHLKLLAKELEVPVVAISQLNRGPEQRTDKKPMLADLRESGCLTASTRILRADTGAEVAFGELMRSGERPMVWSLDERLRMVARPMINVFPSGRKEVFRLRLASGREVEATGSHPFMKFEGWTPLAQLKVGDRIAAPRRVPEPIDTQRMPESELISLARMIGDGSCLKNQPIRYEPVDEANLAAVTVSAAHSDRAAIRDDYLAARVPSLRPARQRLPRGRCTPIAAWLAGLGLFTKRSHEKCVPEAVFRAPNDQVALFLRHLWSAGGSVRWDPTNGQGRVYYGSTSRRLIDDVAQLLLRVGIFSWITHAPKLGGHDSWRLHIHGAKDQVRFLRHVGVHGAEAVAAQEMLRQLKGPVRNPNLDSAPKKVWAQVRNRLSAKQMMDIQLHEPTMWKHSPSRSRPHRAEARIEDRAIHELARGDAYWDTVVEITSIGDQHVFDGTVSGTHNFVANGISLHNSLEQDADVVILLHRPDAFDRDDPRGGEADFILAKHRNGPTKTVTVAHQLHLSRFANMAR
As to the kind of experiment: DnaB intein splicing inhibitors, dose response, biochemical, cell-free fluorescence (AID 449749). The class given is functional.

Another test deals with T2, Protein RecA (Mycobacterium tuberculosis, UniProt P9WHJ3).
T2 sequence (P9WHJ3 whole entry): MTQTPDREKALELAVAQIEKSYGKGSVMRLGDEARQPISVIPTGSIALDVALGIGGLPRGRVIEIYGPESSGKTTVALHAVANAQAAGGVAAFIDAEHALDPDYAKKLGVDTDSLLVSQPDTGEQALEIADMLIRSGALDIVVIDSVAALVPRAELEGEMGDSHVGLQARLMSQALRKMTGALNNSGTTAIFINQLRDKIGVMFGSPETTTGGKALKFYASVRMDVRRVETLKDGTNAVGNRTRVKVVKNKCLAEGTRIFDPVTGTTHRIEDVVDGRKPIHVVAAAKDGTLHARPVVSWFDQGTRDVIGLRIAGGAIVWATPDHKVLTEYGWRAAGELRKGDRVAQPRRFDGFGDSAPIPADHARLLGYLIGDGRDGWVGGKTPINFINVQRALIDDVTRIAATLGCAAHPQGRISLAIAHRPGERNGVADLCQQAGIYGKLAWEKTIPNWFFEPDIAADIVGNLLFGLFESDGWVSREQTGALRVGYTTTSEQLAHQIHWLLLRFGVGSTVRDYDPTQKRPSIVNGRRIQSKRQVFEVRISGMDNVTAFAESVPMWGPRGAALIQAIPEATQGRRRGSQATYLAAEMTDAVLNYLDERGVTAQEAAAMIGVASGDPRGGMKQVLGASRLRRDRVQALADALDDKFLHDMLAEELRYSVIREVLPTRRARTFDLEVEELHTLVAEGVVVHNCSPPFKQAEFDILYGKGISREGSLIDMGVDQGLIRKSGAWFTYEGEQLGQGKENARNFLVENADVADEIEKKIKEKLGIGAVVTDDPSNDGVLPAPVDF
As to the kind of experiment: Fluorescence Cell-Free Homogeneous Dose Retest to Identify Inhibitors of RecA-Intein Splicing Activity. [Related pubchem assays (depositor defined):AID2097, AID2223, AID489010, AID492950]. Type of test: functional.

Test [9] in a line: luciferase reporter signal suppression in cells – H4 neuroglioma cells, luminescence, dose response (AID 1990). Type of test: functional, cell-based. Background: A reporter such as luciferase makes a cellular process visible.
A short description of test [10]: HEK-293T viability loss after treatment – luminescence, T-cell screen hits, cytotoxicity control for TCR NF-kB inhibitor project, dose response (AID 489026).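 Further: cells exposed to compound about 14 hours before the viability readout.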 Type of test: functional, cell-based.
Test [11] in a line: Luminescence Cell-Based Dose Confirmation HTS to Identify Inhibitors of Platelet Dense Granule Release. [Related pubchem assays: 1663 (Primary HTS), 1678 (Summary of Project)]. The class given is functional.
Test [12] addresses Luciferin 4-monooxygenase (Photinus pyralis, UniProt P08659). As to the kind of experiment: inhibition of purified Photinus pyralis luciferase – biochemical, luminescence, dose response (AID 1891).
A short description of test [13]: Luminescence Cell-Based Dose Response HTS to Identify Inhibitors of 5'UTR Stem-Loop Driven Prion Protein mRNA Translation in H4 Neuroglioblastoma Cells. [Related pubchem assays: 1827 (Project Summary), 1813 (Primary HTS)]. Type of test: functional.
Test [14] in a line: Luminescence-based counterscreen assay for KLF5 inhibitors: dose response cell-based high throughput screening assay to identify cytotoxic compounds using the IEC-6 intestinal epithelial cell line. [Related pubchem assays: 1700 (Primary screen.), 1834 (Confirmation screen.), 1858 (Summary AID.), 1905 (Counterscreen.)]. Type of test: functional. For orientation: Counterscreens check selectivity or assay interference.

Test [15] is described as follows: alpha-synuclein stem-loop luciferase translation blockers – H4 neuroglioma cells, luminescence, confirmation (AID 1988). Type of test: functional, cell-based.
In another test the target is T3, Leucine aminopeptidase (Plasmodium falciparum 3D7, UniProt Q8IL11).
T3 sequence (Q8IL11 whole entry): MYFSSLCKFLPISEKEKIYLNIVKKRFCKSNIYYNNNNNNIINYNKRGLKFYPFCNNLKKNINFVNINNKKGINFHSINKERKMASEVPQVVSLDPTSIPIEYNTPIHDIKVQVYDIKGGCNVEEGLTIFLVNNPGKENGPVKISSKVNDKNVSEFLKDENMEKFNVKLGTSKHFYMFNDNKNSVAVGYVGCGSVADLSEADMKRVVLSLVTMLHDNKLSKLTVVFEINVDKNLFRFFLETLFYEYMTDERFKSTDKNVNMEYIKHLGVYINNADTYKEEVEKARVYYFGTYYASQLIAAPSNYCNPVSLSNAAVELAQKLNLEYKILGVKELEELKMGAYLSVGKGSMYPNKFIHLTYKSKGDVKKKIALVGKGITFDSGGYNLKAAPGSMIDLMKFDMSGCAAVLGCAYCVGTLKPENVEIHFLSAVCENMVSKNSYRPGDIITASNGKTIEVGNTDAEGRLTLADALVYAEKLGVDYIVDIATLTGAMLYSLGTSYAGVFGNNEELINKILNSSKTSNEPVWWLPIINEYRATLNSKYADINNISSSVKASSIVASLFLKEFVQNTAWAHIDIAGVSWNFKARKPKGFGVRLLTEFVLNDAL
As to the kind of experiment: P. falciparum M17LAP inhibitors, primary screen, biochemical, fluorogenic H-Leu-NHMec substrate, 1536-well (AID 1619). The class given is functional.

A further test concerns H4. As to the kind of experiment: Luminescence Cell-Based Dose Response HTS to Identify Activators of 5'UTR Stem-Loop Driven Prion Protein mRNA Translation in H4 Neuroglioblastoma Cells. [Related pubchem assays: 1829 (Project Summary), 1814 (Primary HTS)]. Type of test: functional. The following applies: Homo sapiens.
Test [16] in a line: Luminescence Cell-Based Dose Confirmation to Identify Activators of 5'UTR Stem-Loop Driven Alpha-Synuclein mRNA Translation in H4 Neuroglioblastoma Cells. [Related pubchem assays: 1829 (Project Summary), 1814 (Primary HTS)]. The class given is functional.
Test [17] can be described thus: Luminescence Cell-Based Dose Response to Identify Activators of 5'UTR Stem-Loop Driven Prion Protein mRNA Translation in H4-C Neuroglioblastoma Cells. [Related pubchem assays: 1829 (Project Summary), 1814 (Primary HTS)]. Type of test: functional.
Test [18] is described as follows: Luminescence Cell-Based Dose Response to Identify Activators of Luciferase Translation or Activity in H4-C Neuroglioblastoma Cells. [Related pubchem assays: 1829 (Project Summary), 1814 (Primary HTS)]. Type of test: functional.
A short description of test [19]: Luminescence Cell-Based Dose Confirmation HTS to Identify Activators of 5'UTR Stem-Loop Driven Alpha-Synuclein mRNA Translation in H4 Neuroglioblastoma Cells. [Related pubchem assays: 1829 (Project Summary), 1814 (Primary HTS)]. The class given is functional.
A short description of the next test: cells. The class given is functional.

Calls of active or inactive are those of the source. For most assays here, no stated cut-off is given here; in the data, actives have a measured EC50 and inactives only a lower limit.

Chain of Peroxisome proliferator-activated receptor gamma/Nuclear receptor coactivator 3 (P37231 whole entry): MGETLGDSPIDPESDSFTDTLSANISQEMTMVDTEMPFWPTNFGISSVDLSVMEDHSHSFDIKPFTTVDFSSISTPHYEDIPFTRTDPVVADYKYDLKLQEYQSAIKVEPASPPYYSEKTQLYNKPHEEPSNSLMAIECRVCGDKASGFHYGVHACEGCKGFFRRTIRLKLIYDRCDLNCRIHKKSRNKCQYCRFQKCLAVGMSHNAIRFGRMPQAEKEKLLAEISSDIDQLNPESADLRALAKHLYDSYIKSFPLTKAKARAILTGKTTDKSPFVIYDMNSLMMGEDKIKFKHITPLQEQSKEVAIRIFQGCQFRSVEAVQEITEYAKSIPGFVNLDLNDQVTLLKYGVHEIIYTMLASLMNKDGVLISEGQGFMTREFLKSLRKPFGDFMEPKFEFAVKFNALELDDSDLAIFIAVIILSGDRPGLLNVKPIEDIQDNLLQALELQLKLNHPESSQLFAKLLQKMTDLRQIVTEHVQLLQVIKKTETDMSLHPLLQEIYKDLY
Chain of Peroxisome proliferator-activated receptor gamma/Nuclear receptor coactivator 3 (Q9Y6Q9 whole entry, further chain): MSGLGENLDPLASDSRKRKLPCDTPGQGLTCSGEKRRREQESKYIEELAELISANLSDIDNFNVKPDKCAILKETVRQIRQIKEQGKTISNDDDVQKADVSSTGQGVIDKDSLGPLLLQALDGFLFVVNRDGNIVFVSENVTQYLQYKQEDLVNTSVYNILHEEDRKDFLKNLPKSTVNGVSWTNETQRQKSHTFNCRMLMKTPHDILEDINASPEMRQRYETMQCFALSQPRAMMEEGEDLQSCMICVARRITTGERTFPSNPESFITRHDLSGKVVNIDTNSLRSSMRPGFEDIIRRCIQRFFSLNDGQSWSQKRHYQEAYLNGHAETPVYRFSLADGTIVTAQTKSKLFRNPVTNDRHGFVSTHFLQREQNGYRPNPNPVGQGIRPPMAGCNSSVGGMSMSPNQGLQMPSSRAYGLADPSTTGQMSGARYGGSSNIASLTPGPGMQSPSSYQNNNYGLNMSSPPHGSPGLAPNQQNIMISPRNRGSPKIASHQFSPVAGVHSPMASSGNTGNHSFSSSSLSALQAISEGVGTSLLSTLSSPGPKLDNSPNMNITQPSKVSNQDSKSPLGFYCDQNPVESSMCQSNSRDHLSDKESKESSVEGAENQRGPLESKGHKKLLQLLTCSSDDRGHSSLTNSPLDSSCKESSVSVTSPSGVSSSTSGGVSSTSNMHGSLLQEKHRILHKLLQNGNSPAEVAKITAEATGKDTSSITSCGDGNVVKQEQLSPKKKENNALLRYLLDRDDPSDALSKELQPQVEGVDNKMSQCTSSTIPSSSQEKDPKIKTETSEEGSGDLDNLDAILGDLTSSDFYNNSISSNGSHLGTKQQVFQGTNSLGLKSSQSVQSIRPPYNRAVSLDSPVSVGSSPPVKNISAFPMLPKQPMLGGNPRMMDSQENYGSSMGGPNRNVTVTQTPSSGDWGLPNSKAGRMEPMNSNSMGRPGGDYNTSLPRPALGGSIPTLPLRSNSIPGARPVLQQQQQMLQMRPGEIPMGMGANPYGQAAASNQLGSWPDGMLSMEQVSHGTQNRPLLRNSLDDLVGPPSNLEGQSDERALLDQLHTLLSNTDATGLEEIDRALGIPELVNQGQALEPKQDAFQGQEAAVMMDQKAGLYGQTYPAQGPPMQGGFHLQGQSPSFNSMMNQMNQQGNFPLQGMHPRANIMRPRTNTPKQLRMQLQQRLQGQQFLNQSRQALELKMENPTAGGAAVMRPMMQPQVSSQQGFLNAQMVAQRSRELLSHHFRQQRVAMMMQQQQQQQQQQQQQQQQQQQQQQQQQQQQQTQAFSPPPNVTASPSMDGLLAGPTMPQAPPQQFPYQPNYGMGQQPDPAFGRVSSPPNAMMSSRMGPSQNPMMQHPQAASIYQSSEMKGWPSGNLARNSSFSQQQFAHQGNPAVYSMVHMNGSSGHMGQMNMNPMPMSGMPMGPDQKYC
Chain of Peroxisome proliferator-activated receptor gamma/Nuclear receptor coactivator 2 (P37231 whole entry): as the sequence (P37231 whole entry) above
Chain of Peroxisome proliferator-activated receptor gamma/Nuclear receptor coactivator 2 (Q15596 whole entry, further chain): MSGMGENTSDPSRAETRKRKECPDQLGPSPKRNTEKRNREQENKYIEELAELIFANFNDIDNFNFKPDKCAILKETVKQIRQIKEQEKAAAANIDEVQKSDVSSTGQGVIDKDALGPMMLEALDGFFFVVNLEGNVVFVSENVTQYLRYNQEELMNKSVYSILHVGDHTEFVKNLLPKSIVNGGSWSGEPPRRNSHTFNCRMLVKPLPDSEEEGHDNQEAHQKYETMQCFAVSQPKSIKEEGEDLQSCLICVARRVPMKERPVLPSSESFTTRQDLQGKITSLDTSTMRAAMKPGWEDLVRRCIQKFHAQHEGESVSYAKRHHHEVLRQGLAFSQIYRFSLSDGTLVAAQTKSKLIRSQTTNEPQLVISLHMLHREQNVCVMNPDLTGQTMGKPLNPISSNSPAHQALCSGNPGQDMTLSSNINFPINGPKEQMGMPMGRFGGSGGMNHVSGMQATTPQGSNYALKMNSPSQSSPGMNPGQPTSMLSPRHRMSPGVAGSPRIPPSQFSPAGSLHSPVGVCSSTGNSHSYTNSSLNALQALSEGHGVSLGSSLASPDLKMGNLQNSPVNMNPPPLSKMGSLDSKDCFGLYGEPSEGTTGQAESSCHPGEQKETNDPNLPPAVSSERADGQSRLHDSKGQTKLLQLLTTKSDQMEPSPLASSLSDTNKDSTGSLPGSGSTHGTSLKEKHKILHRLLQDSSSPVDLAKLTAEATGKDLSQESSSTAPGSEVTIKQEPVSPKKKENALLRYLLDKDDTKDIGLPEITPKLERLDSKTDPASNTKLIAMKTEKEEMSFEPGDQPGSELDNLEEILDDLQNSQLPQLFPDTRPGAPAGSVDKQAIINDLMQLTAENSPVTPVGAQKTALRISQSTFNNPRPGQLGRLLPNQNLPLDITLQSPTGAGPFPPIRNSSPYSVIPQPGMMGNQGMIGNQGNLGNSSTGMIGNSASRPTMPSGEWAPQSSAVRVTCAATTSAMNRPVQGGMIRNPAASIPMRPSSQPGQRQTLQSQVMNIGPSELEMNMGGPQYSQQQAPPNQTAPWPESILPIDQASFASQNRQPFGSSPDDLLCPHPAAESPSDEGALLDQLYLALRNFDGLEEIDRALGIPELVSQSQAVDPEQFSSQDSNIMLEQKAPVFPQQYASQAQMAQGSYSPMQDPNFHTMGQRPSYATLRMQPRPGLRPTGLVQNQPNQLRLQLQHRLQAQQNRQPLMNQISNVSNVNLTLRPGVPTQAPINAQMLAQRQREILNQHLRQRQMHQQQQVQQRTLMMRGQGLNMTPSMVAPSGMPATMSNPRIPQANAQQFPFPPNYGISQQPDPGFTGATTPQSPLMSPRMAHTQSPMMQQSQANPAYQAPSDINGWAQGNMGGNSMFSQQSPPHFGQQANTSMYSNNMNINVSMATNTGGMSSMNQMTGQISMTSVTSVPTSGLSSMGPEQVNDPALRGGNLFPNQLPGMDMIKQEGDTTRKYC
Chain of Luciferin 4-monooxygenase (P08659 whole entry): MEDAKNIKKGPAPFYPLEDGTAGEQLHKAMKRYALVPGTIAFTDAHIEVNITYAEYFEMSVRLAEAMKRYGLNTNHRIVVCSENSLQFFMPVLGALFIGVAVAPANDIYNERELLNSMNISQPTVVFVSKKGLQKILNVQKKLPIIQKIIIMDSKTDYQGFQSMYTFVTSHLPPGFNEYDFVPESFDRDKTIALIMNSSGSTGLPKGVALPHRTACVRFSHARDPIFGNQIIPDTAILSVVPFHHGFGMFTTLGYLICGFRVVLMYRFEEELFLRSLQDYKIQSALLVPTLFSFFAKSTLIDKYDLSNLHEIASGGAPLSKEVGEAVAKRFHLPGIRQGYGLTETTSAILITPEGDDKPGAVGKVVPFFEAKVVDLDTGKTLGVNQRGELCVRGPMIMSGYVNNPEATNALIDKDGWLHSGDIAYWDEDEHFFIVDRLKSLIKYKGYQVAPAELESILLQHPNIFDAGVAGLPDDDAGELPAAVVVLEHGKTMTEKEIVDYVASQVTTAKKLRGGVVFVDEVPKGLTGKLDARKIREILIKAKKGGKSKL

By EC50 is commonly meant the concentration needed to bring the measured effect to its halfway point. Take `O=C(Nc1ccccc1NC(=O)c1c(F)c(F)c(F)c(F)c1F)c1c(F)c(F)c(F)c(F)c1F`: the EC50 in [1] was 12.5 µM (active); in test [2], 17.1 µM (active).
The like results for `N#C/C(=C\c1cccs1)Sc1nc2ccccc2s1` were, in that order, 17.3 µM (active) and 16.3 µM (active).
Regarding `COC(=O)CSc1nc2cc3c(cc2cc1C#N)OCO3`, the EC50 in test [3] was 0.176 µM (active); in test [4], 7.89 µM (active); in test [5], 5.17 µM (active); in [6] it was 7.25 µM (active).
What is called CC50 is the concentration that lowers cell viability or growth by half. As to `CCOc1ccc(S(=O)(=O)Nc2cc(Sc3nc[nH]n3)c3oc(=O)sc3c2)cc1`, the concentration giving a half-maximal response (EC50) in test [1] was 18.6 µM (active); in test [2], 13.8 µM (active). Besides, in [7], the CC50 is 26.2 µM (active).
Broadly, the AC50 is the midpoint of the concentration-response curve, whichever way the signal moves. Regarding `O=S(=O)(CCSc1ccccn1)c1nc2ccccc2s1`, the 50% effective concentration (EC50) in [1] was 6.03 µM (active); in test [2], 8.47 µM (active); on Protein RecA it was 9.21 µM (active). Moreover, in test [8], the AC50 was 5.68 µM (active).
For orientation: IC50 means the point on the concentration scale where inhibition reaches its midpoint. `NC(=NOCc1ccc([N+](=O)[O-])cc1)c1ccccn1`: the EC50 in test [9] is 0.201 µM (active); in test [11] it was 7.95 µM (active); in [12], 9.46 µM (active); in test [13], 0.223 µM (active); in [15], 0.143 µM (active). Also, the IC50 in test [10] was > 80 µM (inactive); in [14], > 39.8 µM (not active).
In the case of `CC1=NNC(=O)C1CC(=O)N/N=C/C(C)=C/c1ccccc1` (stereo unspecified), at Leucine aminopeptidase, the IC50 was 52.8 µM (active).
Consider `N=C(CS(=O)(=O)c1ccccn1)NOC(=O)c1ccccc1Cl`, for which the half-maximal effective concentration (EC50) in the test with H4 was 10.7 µM (active); in [16], 0.244 µM (active); in [3], < 0.1 µM (active); in test [17], 0.769 µM (active); in test [18], 5.85 µM (active); in [19], 0.17 µM (active).
Regarding `COc1ccc(S(=O)(=O)Nc2c(F)cccc2F)cc1`, the EC50 in test [4], in test [5] and in test [6] was > 79.4 µM (not active) in each case.
Take `CCOC(=O)Nc1c(O)ccc2oc(C)c(-c3ccccc3)c12`: the concentration for half-maximal inhibition (IC50) on Leucine aminopeptidase was 17.3 µM (active).
As for `COc1ccc(CC(=O)NCc2nnc(SCC(=O)Nc3cccc(F)c3)n2C)cc1`, the 50% effective concentration (EC50) in test [4], in test [5] and in test [6] was > 79.4 µM (not active) each time.
For `COc1ccc(NC(=O)CSc2nccc(C)n2)cc1`, on Leucine aminopeptidase, the half-inhibitory concentration (IC50) was 20.3 µM (active).
As to `O=C1c2n[nH]c(-c3ccccc3O)c2C(c2ccc(F)cc2)N1Cc1ccco1` (stereo unspecified), the figures for the 50% effective concentration (EC50) in test [1] and in test [2] were 16.9 µM (active) and 18.7 µM (active), respectively.
For the compound `Cc1ccc(NC(=O)ON=C2CCCC2)cc1`, the concentration giving a half-maximal response (EC50) in the test with H4 is > 120 µM (not active); in [16] it was 0.547 µM (active); in test [3] it was 0.777 µM (active); in [17], 1.53 µM (active); in test [18], 0.501 µM (active). Further, the IC50 in “cells” is 43.2 µM (active).
In the case of `Cc1nc(SCC(=O)Nc2ccc(F)cc2)c2oc3ccccc3c2n1`, the EC50 was > 79.4 µM (not active) in test [4], 9.31 µM (active) in test [5] and > 79.4 µM (not active) in test [6].
With `Cc1cc(NC(=O)CN2C(=O)NC3(CCC(C)CC3)C2=O)no1` (stereo unspecified), the EC50 in test [4], in [5] and in [6] was > 79.4 µM (not active) in each case.
